Measured values as given in patent US6841560B2, “Substituted isoquinoline derivatives and their use as anticonvulsants” (SmithKline Beecham p.l.c., priority 1997, dated 2005).

system: maximal (tonic hindlimb extension) electroshock seizures in male rats; experiment: Maximal electroshock seizure (MEST) threshold test, rat model; type: in vivo; settings: 2 mg/kg p.o. at 2 h, suspended in 1% methyl cellulose
Protocol: (§1) The maximal electroshock seizure (MEST) threshold test in rodents is particularly sensitive for detecting potential anticonvulsant properties^1. In this model, anticonvulsant agents elevate the threshold to electrically-induced seizures whilst proconvulsants lower the seizure threshold.
The threshold for maximal (tonic hindlimb extension) electroshock seizures in male rats (Sprague Dawley, 80-150 g, 6 weeks old) was determined by a Hugo Sachs Electronik stimulator which delivered a constant current (0.3 sec duration, from 1-300 mA in steps of 5-20 mA). The procedure is similar to that outlined above for mouse and full details are as published by Upton et al,.^4
The percentage increase or decrease in CC50 for each group compared to the control is calculated.
Drugs are suspended in 1% methyl cellulose.

First: COc1ccc(C(=O)Nc2ccc3c(c2)CN(C)CC3)cc1C(F)(F)F [Example 51, N-(2-Methyl-1,2,3,4-tetrahydroisoquinolin-7-yl)-4-methoxy-3-trifluoromethylbenzamide]
Second: CCOc1ccc(C(=O)Nc2ccc3c(c2)CN(C)CC3)cc1Br [Example 49, N-(2-Methyl-1,2,3,4-tetrahydroisoquinolin-7-yl)-3-bromo-4-ethoxybenzamide]
The “increase in CC50 (seizure threshold) compared to control” value of the first is higher: 545% for the first, 325% for the second.

First: CC(C)Oc1ccc(C(=O)Nc2ccc3c(c2)CN(C)CC3)cc1Cl [Example 48, N-(2-Methyl-1,2,3,4-tetrahydroisoquinolin-7-yl)-3-chloro-4-iso-propoxybenzamide]
Second: CC(C)c1ccc(C(=O)Nc2ccc3c(c2)CN(C)CC3)cc1C#N.Cl [Example 67, N-(2-Methyl-1,2,3,4-tetrahydroisoquinolin-7-yl)-3-cyano-4-iso-propylbenzamide, hydrochloride]
The “increase in CC50 (seizure threshold) compared to control” value of the first is higher: 389% for the first, 303% for the second.

system: electrically-induced seizures in mice; experiment: Maximal electroshock seizure (MEST) threshold test, mouse model; type: in vivo; settings: 10 mg/kg oral, suspension in methyl cellulose, one hour post dosing
Protocol: as §1
Mice (naive male, Charles River, U.K. CD1 strain, 25-30 g) are randomly assigned to groups of 10-20 and dosed orally or intraperitoneally at a dose volume of 10 ml/kg with various doses of compound (0.3-300 mg/kg) or vehicle. Mice are then subjected at 30 or 60 min post dose to a single electroshock (0.1 sec, 50 Hz, sine wave form) administered via corneal electrodes. The mean current and standard error required to induce a tonic seizure in 50% (CC50) of the mice in a particular treatment group is determined by the ‘up and down’ method of Dixon and Mood (1948)^2. Statistical comparisons between vehicle- and drug-treated groups are made using the method of Litchfield and Wilcoxon (1949)^3.
In control animals the CC50 is usually 14-18 mA. […] If a tonic convulsion does occur, then the current is decreased, and so on until all the animals in the group have been tested.
Studies are carried out using a Hugo Sachs Electronik Constant Current Shock Generator with totally variable control of shock level from 0 to 300 mA and steps of 2 mA are usually used.

Compared with `CN1CCc2ccc(NC(=O)c3ccc(Oc4ccccc4)cc3)cc2C1` [Example 7, N-(2-Methyl-1,2,3,4-tetrahydroisoquinolin-7-yl)-4-phenoxybenzamide], `CC(C)Oc1ccc(C(=O)Nc2ccc3c(c2)CN(C)CC3)cc1` [Example 6, N-(2-Methyl-1,2,3,4-tetrahydroisoquinolin-7-yl)-4-iso-propoxybenzamide] is higher in “increase in seizure threshold” value: 23% for the first, 90% for the second.

Compared with `CN1CCc2ccc(NC(=O)c3cccc(Cl)c3)cc2C1` [Example 4, N-(2-Methyl-1,2,3,4-tetrahydroisoquinolin-7-yl)-3-chlorobenzamide], `CN1CCc2ccc(NC(=O)c3ccc(C(C)(C)C)cc3)cc2C1` [Example 5, N-(2-Methyl-1,2,3,4-tetrahydroisoquinolin-7-yl)-4-t-butylbenzamide] is higher in “increase in seizure threshold” value: 24% for the first, 36% for the second.

system: not given; experiment: not given; settings: not given

First: O=C(Nc1ccc2c(c1)CNCC2)c1ccc(Cl)s1.O=C(O)C(F)(F)F [Example 1, N-(1,2,3,4-Tetrahydroisoquinolin-7-yl)-5-chlorothiophene-2-carboxamide, monotrifluoroacetate]
Second: CN1CCc2ccc(NC(=O)c3cccc(C(=O)C(C)(C)C)c3)cc2C1.Cl
The melting point of the first is lower: 153 to 155 °C for the first, 197 to 201 °C for the second.
